According to patent US20080089862A1, “PROTEASE INHIBITORS AND METHOD OF SCREENING THEREOF” (priority 2005, published 2008):
No end group written: not given here.

Molecular target: T1, MBP-scNS3 (Hepatitis C virus genotype 1b, UniProt P26663)
T1 construct: made in house
Assay: Bacterial genetic screening, blue/white colonies on X-gal indicative plates
Assay type: cell-based, Hepatitis C virus (HCV) genotype Ib
Details: IPTG-induced test bacteria (pMGT14); blue = NS3 inhibited
Source text: Applying the bacterial genetic screening to isolate NS3-inhibitory scFvs. Affinity selected phages were pooled and used as source for scFv DNA by digestion of phagemid DNA with Ncol and Notl. The pooled insert DNA was cloned into pMALc-NN that had been digested with the same enzymes essentially as described (Bach et al., 2001). In pMALc-NN, expression of MBP-scFvs is under the control of an IPTG-inducible tac promoter and the plasmid carries an ampicillin resistance cassette and the colEl origin of replication and is thus compatible with pMGT14 or pMGT15. The plasmid pool was introduced into E. coli TG-I cells already containing the pMGT14 plasmid. The transformants were plated to yield individual colonies on 2xYT agar plates supplemented with 0.004% (w/v) X-gal, 100 μg/ml ampicillin, 50 μg/ml kanamycin, 0.2% arabinose and 0.05 mM IPTG. Blue colonies were picked and pMALc-NN-scFv DNA was recovered and re-introduced into pMGT14 expressing cells to validate the results of the initial screening.
The expression platform was constructed as follows: C-terminal peptides were introduced by PCR using pMALc-NN (Bach et al., 2001) as template and recloning into the same backbone. The ligated vectors were introduced into the “bacterial test strain” and IPTG induction was used to overexpress the peptides. […]

Sequence | colony colour on X-gal plates
DYKDDDDK [FLAG epitope] | colorless
EASEDVVC (not fully specified) ["product-like" peptide (NS5A/B site P side), control construct] | blue
